Laboratory results: PubChem BioAssay (NCI)
Where “and” joins values, the source holds several entries; their conditions need not be identical. Identical values can stand only once.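 Step 1: Grow cells in 96-well plates. Step 2: Expose to compound for 48 hours at 5 concentrations. Step 3: Interpolate endpoints linearly; if unreached, use highest concentration. GI50 is the concentration that inhibits growth by half. The concentration for full growth arrest is given as TGI.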

Legend:
Assay in all cases: inhibition of tumour cell growth, NCI panel, 48 h
[1] = test system: OVCAR-5 ovarian
[2] = test system: OVCAR-4 ovarian
[3] = test system: SK-OV-3 ovarian
[4] = test system: MALME-3M melanoma
[5] = test system: SR leukemia
[6] = test system: SK-MEL-28 melanoma
[7] = test system: SK-MEL-5 melanoma
[8] = test system: MOLT-4 leukemia
[9] = test system: BT-549 breast
[10] = test system: CCRF-CEM leukemia

SMILES | GI50 [1] [µM] | TGI [1] [µM] | GI50 [2] [nM] | TGI [2] [µM] | GI50 [3] [µM] | TGI [3] [µM] | GI50 [4] [µM] | TGI [4] | GI50 [5] [nM] | TGI [5] [µM] | GI50 [6] [µM] | TGI [6] | GI50 [7] [µM] | TGI [7] [µM] | GI50 [8] [nM] | TGI [8] | GI50 [9] [nM] | TGI [9] [µM] | GI50 [10] [nM] | TGI [10]
C=C1CCC2C3(C)COC(c4ccc(N(C)C)cc4)OC3CCC2(C)C1C/C=C1/C(=O)OCC1O (stereo unspecified) | 7.7 | 20 | 2500 | 8.98 | 17 | 50.4 | 7.83 | 22.2 µM | 1150 | 3.77 | 2.34 | 5.4 µM | 7.2 | 20.3 | 1970 | 5.68 µM | 2950 | 11.1 | 1350 | 3.99 µM
Cc1c(C(N)=O)sc2c1C(=O)N(Cc1ccccc1)C1=NN=C(c3ccc(Cl)cc3)CN12 | 8.47 | 21.1 | 2810 | 15.8 | 3.71 | 15.8 | 3.29 | 16.4 µM | 3140 | 50.7 | 5.67 | 18.5 µM | 1.84 | 4.76 | 2360 | 40.1 µM | 3660 | 16.4 | 1490 | 43.1 µM
CC1CCC(NC(=O)N(CCCl)N=O)CC1 (stereo unspecified) | – | 105 | – | 61.1 | – | 148 | 26 | 51.5 µM and 98.1 µM | 832 | – | 18.8 | 35.1 µM and 93.1 µM | 29.8 | > 87.5 | – | 40.2 µM and 66.6 µM | – | 57.2 | 8110 | 30.3 µM and 55.8 µM
Fc1ccc2c(c1)C1=NN(c3ccccc3)C(F)C1CO2 (stereo unspecified) | 18.1 | > 50 | 7720 | 17.4 | 25.3 | > 50 | – | – | 25700 | > 50 | 9.51 | 22 µM | 8.48 | 16.2 | > 50000 | > 50 µM | 10400 | 22.2 | – | –
N#CC(NC12CC3CC(CC(C3)C1)C2)c1ccc2c(c1)OCO2 (stereo unspecified) | – | > 100 | – | > 100 | – | > 100 | – | > 100 µM | – | > 100 | – | > 100 µM | – | > 100 | – | > 100 µM | – | > 100 | – | > 100 µM
Nc1c(C(=O)c2cccc(-c3ccncc3)c2)cnn1-c1ccc(F)cc1F | > 25 | > 25 | 11400 | > 25 | 19.8 | > 25 | 3.98 | > 16.2 µM | 1050 | > 18.5 | 16.7 | > 25 µM | 1.68 | 8.49 | 8390 | > 25 µM | 11100 | > 25 | 17000 | > 25 µM
COc1c(C)c2c(c(O)c1C/C=C(\C)CCC(=O)O)C(=O)OC2 | 1.79 | > 100 | 776 | > 100 | 0.571 | > 100 | 0.714 | > 100 µM | 158 | > 100 | 0.38 | > 100 µM | 0.411 | > 100 | 208 | > 100 µM | 818 | > 100 | 88.9 | > 100 µM
C=C(C)C(=O)Nc1ccc(NC(C)C)cc1 | > 100 | > 100 | > 100000 | > 100 | > 100 | > 100 | > 100 | > 100 µM | > 100000 | > 100 | > 100 | > 100 µM | > 100 | > 100 | > 100000 | > 100 µM | > 100000 | > 100 | > 100000 | > 100 µM
COc1ccc2nc3cccc([N+](=O)[O-])c3c(NCCCCCC(=O)O)c2c1 | 0.132 | 1.11 | 393 | 1.72 | 0.915 | 5.41 | 0.0437 | 0.194 µM | 39.5 | – | 0.159 | 0.548 µM | 0.0116 | 0.0694 | 26.6 | 0.284 µM | 131 | 0.422 | 39.7 | 0.302 µM
O=C(O)C(/C=C/c1ccccc1)c1ccccc1 (stereo unspecified) | – | > 100 | – | – | – | > 100 | – | > 100 µM | – | > 100 | – | > 100 µM | – | > 100 | – | > 100 µM | – | > 100 | – | > 100 µM
COC(=O)C1(C)CCC(c2ccc(C)cc2)=C(CC(=O)O)C1 (stereo unspecified) | – | > 100 | – | > 100 | – | > 100 | – | > 100 µM | – | > 100 | – | > 100 µM | – | > 100 | – | > 100 µM | – | > 100 | – | –
COc1ccc(/C(COc2ccc3c(=O)cc(-c4ccccc4)oc3c2)=N\O)cc1 | 0.402 | > 10.2 | 21500 | > 41.5 | 16.1 | 48.4 | – | – | 6610 | > 32 | 19.5 | > 41.9 µM | 9.61 | > 29.4 | > 50000 | > 50 µM | 12900 | 25.8 | > 50000 | > 50 µM
C=C(C)C(=O)O[C@H]1CC(=C)[C@@H]2C[C@H](O)[C@](O)(CCl)[C@@H]2[C@H]2OC(=O)C(=C)[C@@H]21 | 14.8 | 29.6 | 2080 | 4.01 | 16.2 | 30.2 | 1.86 | 3.6 µM | – | – | 2.02 | 3.9 µM | 8.66 | 23.4 | 1440 | 3.84 µM | 1840 | 3.45 | 1570 | 3.71 µM
COc1ccc2cc(C(=O)/C=C/c3ccc(Cl)cc3Cl)ccc2c1 | 48.4 | > 100 | – | – | 61.6 | > 100 | 23.5 | > 100 µM | 3670 | 17.3 | 29.9 | > 100 µM | 12.1 | 29.9 | 4010 | 17.7 µM | 963 | 4.6 | 6740 | > 100 µM
